Source: patent US11530223B2, “Spiro-lactam NMDA receptor modulators and uses thereof” (Aptinyx Inc., priority 2016, dated 2022)
Where two headings read alike, the source gives them in different places.

Tests used:
[1] = target: T1, NMDAR2B (Homo sapiens, UniProt Q13224); assay: [3H]MK-801 binding in NMDAR2B expressing HEK cell membranes; assay type: biochemical; parameters: key to B: log EC50: 0=−; ≥1×10^−9 M (e.g., −8)=+; <1×10^−9 M (e.g., −10)=++; conditions: 50 μM glutamate; for Emax: read-out: A: % maximal [3H]MK-801 binding relative to 1 mM glycine; for EC50: read-out: B: log EC50 (converted)
T1 construct: expressed in transfected cells; host or cells: HEK cells (membrane extract)
T1 sequence (Q13224 27-1484, species assumed, other chains not shown): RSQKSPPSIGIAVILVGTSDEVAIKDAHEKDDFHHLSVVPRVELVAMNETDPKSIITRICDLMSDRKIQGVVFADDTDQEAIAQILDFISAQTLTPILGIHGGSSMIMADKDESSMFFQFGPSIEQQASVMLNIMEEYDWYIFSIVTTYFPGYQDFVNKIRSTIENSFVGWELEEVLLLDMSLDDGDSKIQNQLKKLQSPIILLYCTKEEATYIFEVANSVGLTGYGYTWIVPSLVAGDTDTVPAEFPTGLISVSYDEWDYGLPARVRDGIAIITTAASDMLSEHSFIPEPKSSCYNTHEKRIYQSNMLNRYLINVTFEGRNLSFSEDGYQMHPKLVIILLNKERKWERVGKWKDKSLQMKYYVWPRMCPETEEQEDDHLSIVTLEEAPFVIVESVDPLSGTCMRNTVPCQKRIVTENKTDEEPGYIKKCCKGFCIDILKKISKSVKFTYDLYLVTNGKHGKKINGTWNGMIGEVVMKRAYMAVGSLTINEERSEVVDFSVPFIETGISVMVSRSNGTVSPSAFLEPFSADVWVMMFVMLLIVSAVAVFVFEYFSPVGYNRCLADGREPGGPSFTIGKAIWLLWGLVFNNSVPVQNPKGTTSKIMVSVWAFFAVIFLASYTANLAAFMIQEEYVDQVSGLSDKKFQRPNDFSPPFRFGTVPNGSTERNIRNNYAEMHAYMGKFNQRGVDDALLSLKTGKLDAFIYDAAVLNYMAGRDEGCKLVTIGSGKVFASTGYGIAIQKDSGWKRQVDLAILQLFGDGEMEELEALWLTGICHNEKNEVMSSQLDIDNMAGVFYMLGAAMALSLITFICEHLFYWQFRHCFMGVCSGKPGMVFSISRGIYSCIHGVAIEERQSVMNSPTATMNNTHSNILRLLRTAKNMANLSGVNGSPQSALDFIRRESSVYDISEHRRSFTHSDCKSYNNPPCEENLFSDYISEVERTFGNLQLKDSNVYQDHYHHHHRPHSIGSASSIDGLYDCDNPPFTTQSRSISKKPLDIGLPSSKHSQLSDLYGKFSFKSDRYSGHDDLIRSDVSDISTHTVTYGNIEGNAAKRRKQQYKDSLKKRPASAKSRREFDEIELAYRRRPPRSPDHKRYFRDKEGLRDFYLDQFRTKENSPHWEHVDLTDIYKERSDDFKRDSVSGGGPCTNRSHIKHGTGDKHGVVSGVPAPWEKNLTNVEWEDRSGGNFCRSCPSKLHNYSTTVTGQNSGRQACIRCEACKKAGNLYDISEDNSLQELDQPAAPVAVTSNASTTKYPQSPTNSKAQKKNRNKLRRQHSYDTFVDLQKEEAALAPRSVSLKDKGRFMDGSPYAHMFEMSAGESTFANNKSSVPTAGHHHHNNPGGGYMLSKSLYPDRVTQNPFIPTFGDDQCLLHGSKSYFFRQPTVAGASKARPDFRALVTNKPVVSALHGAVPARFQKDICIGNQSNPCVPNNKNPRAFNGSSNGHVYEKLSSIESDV
Method: (§1) Assays were conducted as described by Moskal et al., “GLYX-13: a monoclonal antibody-derived peptide that acts as an N-methyl-D-aspartate receptor modulator,” Neuropharmacology, 49, 1077-87, 2005. These studies were designed to determine if the test compounds act to facilitate NMDAR activation in NMDAR2A, NMDAR2B, NMDAR2C or NMDAR2D expressing HEK cell membranes as measured by increases in [^3H]MK-801 binding.
(§2) In the assay, 300 μg of NMDAR expressing HEK cell membrane extract protein was preincubated for 15 minutes at 25° C. in the presence of saturating concentrations of glutamate (50 μM) and varying concentrations of test compound (1×10^−15M−1×10^−7M), or 1 mM glycine. Following the addition of 0.3 μCi of [^3H]MK-801 (22.5 Ci/mmol), reactions were again incubated for 15 minutes at 25° C. (nonequilibrium conditions). Bound and free [^3H]MK-801 were separated via rapid filtration using a Brandel apparatus.
(§3) In analyzing the data, the DPM (disintegrations per minute) of [^3H]MK-801 remaining on the filter were measured for each concentration of test compound or for 1 mM glycine. The DPM values for each concentration of a ligand (N=2) were averaged. The baseline value was determined from the best fit curve of the DPM values modeled using the GraphPad program and the log(agonist) vs. response (three parameters) algorithm was then subtracted from all points in the dataset. The % maximal [^3H]MK-801 binding was then calculated relative to that of 1 mM glycine: all baseline subtracted DPM values were divided by the average value for 1 mM glycine. The EC50 and % maximal activity were then obtained from the best fit curve of the % maximal [^3H]MK-801 binding data modelled using the GraphPad program and the log(agonist) vs. response (three parameters) algorithm.
(§4) The tables below summarize the results for the wild type […] NMDAR2A, NMDAR2B, NMDAR2C, and NMDAR2D, and whether the compound is not an agonist (−), is an agonist (+), or is a strong agonist (++), where column A is based on the % maximal [^3H]MK-801 binding relative to 1 mM glycine (−=0; <100%=+; and >100%=++); and column B is based on log EC50 values (0=−; ≥1×10^−9 M (e.g., −8)=+; and <1×10^−9 M (e.g., −10)=++).

[2] = target: T2, NMDAR2A (Homo sapiens, UniProt Q12879); assay: [3H]MK-801 binding in NMDAR2A expressing HEK cell membranes; assay type: biochemical; parameters: key to B: log EC50: 0=−; ≥1×10^−9 M (e.g., −8)=+; <1×10^−9 M (e.g., −10)=++; conditions: 50 μM glutamate; for EC50: read-out: B: log EC50 (converted)
T2 construct: expressed in transfected cells; host or cells: HEK cells (membrane extract)
T2 sequence (Q12879 23-1464, species assumed, other chains not shown): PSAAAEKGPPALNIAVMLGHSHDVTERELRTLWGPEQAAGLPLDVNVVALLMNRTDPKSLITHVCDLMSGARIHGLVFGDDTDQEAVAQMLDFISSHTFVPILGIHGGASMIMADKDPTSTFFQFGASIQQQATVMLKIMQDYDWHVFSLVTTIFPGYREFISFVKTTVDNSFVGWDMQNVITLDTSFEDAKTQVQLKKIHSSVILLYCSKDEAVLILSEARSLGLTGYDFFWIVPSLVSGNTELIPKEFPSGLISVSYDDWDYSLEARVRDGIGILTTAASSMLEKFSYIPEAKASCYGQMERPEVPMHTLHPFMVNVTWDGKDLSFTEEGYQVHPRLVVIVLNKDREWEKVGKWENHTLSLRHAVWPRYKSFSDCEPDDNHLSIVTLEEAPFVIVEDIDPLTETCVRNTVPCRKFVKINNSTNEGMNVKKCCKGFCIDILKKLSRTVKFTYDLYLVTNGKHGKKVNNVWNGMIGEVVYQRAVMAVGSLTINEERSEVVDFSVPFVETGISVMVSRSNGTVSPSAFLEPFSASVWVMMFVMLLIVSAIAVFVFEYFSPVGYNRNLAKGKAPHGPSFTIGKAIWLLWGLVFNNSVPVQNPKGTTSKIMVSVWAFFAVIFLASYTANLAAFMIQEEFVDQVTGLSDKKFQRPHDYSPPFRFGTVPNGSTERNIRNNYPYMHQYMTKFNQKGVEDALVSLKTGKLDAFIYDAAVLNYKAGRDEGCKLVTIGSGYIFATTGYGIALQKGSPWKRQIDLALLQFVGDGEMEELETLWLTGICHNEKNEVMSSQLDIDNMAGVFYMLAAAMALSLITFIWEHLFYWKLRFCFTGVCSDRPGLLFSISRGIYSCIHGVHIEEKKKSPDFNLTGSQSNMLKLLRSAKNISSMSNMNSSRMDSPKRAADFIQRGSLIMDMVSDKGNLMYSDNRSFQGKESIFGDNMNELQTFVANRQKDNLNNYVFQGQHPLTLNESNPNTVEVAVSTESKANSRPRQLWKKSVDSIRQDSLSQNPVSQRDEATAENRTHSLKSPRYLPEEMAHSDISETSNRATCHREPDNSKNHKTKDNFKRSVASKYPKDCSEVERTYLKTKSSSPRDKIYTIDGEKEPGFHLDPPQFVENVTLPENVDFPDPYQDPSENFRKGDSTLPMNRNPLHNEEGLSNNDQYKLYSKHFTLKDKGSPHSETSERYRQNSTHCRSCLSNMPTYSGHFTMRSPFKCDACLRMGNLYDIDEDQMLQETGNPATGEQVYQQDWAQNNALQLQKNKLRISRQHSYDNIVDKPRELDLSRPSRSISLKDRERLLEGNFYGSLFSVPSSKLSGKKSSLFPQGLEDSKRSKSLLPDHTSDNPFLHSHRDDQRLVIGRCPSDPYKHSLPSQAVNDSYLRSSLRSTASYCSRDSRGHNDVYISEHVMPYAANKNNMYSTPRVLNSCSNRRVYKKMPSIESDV
Method: as §1, §2, §3, §4

[3] = system: rats; assay: positive emotional learning (PEL) test, 50-kHz ultrasonic vocalizations; assay type: in vivo; conditions: rat, PO, dose .001-1 mg/kg, one hour after administration
Method: Experiments were conducted as described in Burgdorf et al., “The effect of selective breeding for differential rates of 50-kHz ultrasonic vocalizations on emotional behavior in rats,” Devel. Psychobiol., 51:34-46 (2009). Rat 50-kHz ultrasonic vocalization (hedonic USVs) is a validated model for the study of positive affective state and is best elicited by rough-and-tumble play.
The PEL assay measures the acquisition of positive (hedonic) 50-kHz ultrasonic vocalizations (USVs) to a social stimulus, heterospecific rough and tumble play stimulation. Heterospecific rough-and-tumble play stimulation was administered by the experimenter's right hand. One hour after administration of test compound or vehicle negative control (0.5% sodium carboxymethyl cellulose in 0.9% sterile saline vehicle), animals received 3 min of heterospecific rough-and-tumble play that consisted of alternating 15 sec blocks of heterospecific play and 15 sec of no-stimulation. High frequency ultrasonic vocalizations (USVs) were recorded and analyzed by sonogram with Avasoft SASlab Pro (Germany) as previously described by Burgdorf et al., “Positive emotional learning is regulated in the medial prefrontal cortex by GluN2B-containing NMDA receptors,” Neuroscience, 192:515-523 (2011). Frequency modulated 50-kHz USVs that occurred during each of the no-stimulation periods were quantified to measure PEL. Animals were not habituated to play stimulation before testing. Positive emotional learning was measured during the conditioned stimulus (CS) trials preceding the tickle unconditioned stimulus (UCS) trials. Animals received 15 second trials consisting of 6 CS and 6 UCS trials each (3 min total).
The table below summarizes the findings. As each experiment includes its own vehicle group, an example (typical) vehicle score is shown. Max effect (mean number of 50 kHz USVs per 15 seconds) is reported as ^: <6.0; *: 6.0-7.6; **: 7.7-10; ***:10.1-20

[4] = oral pharmacokinetics (plasma, brain, CSF); assay type: in vivo; conditions: Sprague Dawley rats, per os 10 mg/kg; for AUC(0-t) / bioavailability / Cmax / Tmax: plasma; for Tmax: normal saline (first four compounds: 5% NMP, 5% Solutol HS, 90% normal saline), read-out: Tmax
Method: Plasma, brain, and CSF samples were analyzed at various time points over a 24 hour period.

[5] = target: T3, NMDAR2D (Homo sapiens, UniProt O15399+Q05586); assay: [3H]MK-801 binding in NMDAR2D expressing HEK cell membranes; assay type: biochemical; parameters: key to B: log EC50: 0=−; ≥1×10^−9 M (e.g., −8)=+; <1×10^−9 M (e.g., −10)=++; conditions: for Emax: second part of table, c3, taken as NMDAR2D, read-out: A: % maximal [3H]MK-801 binding relative to 1 mM glycine
T3 construct: expressed in transfected cells; host or cells: HEK cells (membrane extract)
T3 sequence (O15399 28-1336, species assumed, other chains not shown): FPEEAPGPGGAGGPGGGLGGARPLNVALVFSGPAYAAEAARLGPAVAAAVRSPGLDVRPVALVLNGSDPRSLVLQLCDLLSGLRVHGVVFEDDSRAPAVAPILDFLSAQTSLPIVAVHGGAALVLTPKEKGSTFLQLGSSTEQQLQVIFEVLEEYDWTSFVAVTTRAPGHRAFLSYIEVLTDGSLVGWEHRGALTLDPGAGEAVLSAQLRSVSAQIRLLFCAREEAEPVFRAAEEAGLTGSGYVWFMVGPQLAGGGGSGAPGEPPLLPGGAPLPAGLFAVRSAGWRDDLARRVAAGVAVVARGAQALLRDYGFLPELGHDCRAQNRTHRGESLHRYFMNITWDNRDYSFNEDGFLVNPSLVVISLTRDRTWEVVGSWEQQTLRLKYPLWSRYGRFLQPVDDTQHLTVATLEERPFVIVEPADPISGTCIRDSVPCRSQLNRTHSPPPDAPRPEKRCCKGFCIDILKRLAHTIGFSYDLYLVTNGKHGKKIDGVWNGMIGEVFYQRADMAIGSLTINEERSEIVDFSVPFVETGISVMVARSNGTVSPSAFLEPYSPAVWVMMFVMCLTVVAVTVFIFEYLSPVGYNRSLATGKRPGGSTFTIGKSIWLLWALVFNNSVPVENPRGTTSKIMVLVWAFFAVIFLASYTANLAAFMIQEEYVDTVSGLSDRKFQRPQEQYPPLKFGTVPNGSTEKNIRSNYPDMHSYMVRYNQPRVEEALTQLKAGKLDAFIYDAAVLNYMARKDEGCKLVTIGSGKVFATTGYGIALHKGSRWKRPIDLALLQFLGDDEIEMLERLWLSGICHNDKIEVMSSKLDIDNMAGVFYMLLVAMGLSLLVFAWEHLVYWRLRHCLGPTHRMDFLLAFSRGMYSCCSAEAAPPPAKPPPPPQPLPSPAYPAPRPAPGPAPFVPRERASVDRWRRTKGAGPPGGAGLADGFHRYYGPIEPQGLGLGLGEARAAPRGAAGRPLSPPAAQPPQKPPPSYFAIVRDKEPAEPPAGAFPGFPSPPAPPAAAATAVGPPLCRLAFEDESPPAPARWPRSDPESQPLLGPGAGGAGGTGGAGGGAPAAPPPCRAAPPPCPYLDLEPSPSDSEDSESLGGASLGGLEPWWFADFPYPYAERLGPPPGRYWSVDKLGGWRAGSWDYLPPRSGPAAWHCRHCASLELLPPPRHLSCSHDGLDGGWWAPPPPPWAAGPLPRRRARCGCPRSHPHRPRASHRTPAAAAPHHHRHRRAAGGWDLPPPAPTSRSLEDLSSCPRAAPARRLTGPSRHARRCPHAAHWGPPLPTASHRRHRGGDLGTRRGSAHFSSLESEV
Method: as §1, §2, §3, §4

[6] = target: T4, NMDAR2D (Homo sapiens, UniProt O15399); assay: as above; assay type: biochemical; parameters: key to B: log EC50: 0=−; ≥1×10^−9 M (e.g., −8)=+; <1×10^−9 M (e.g., −10)=++
T4 construct: expressed in transfected cells; host or cells: HEK cells (membrane extract)
T4 sequence (O15399 28-1336, species assumed, other chains not shown): as above
Method: as §1, §2, §3, §4

[7] = IV pharmacokinetics; assay type: in vivo; conditions: Sprague Dawley rats; for C0: normal saline (first four compounds: 5% NMP, 5% Solutol HS, 90% normal saline); for Vd: read-out: Vss
Method: Sprague Dawley rats were dosed intravenously using a normal saline formulation containing 2 mg/kg of the compounds identified in the below table (except for the first four compounds that were delivered in 5% NMP, 5% Solutol® HS and 90% normal saline formulation). The table below summarizes the results of the IV pharmacokinetics.

[8] = system: Sprague Dawley rats; assay: Porsolt forced swim test; assay type: in vivo; conditions: 0.1 mg/kg; for % reduction in float time: relative to vehicle group
Method: A non-clinical in vivo pharmacology study (Porsolt assay) was performed to measure antidepressant-like effects. A negative control (0.5% sodium carboxymethyl cellulose in 0.9% sterile saline vehicle) and a positive control (fluoxetine) are shown for comparison against test compound. The study allowed for the evaluation of the effects of each compound on the Porsolt forced swim test as assessed by the rats' response (reduced floating time) during a 5-minute swimming test.
Male 2-3 month old Sprague Dawley rats were used (Harlan, Indianapolis, Ind.). Rats were housed in Lucite cages with aspen wood chip bedding, maintained on a 12:12 light:dark cycle (lights on at 5 AM), and given ad libitum access to Purina lab chow (USA) and tap water throughout the study.
The Porsolt forced swim test adapted for use in rats was performed as described by Burgdorf et al., (The long-lasting antidepressant effects of rapastinel (GLYX-13) are associated with a metaplasticity process in the medial prefrontal cortex and hippocampus. Neuroscience 308:202-211, 2015). Animals were placed in a 46 cm tall×20 cm in diameter clear glass tube filled to 30 cm with tap water (23±1° C.) for 15 min on the first day (habituation) and 5 min on the subsequent test day. Positive control fluoxetine was dosed 3 times (24 h, 5 h and 1 h) prior to testing. Animals were tested 1 h or 24 h post-dosing with the test compounds or vehicle. Animals received a 15 min habituation session 1 day before the 5 min test. A subset of compounds tested at 1 h post-dosing were retested at 1 wk post-dosing in the same sets of animals. Water was changed after every other animal. Animals were videotaped, and floating time as defined as the minimal amount of effort required to keep the animals head above water was scored offline by a blinded experimenter with high inter-rater reliability (Pearson's r>0.9).
Each compound tested at dose level shown. Significance vs. vehicle group for each experiment is marked. […] A compound marked “No” was not statistically significant from vehicle. Data was averaged for test compound and vehicle groups (N approximately 8 per group) and the percent reduction in floating for group treated with test compound relative to group treated with vehicle is shown.

[9] = Sprague Dawley, rat, po, 10 mg/kg
[10] = Sprague Dawley, rat, po, 10 mg/kg, read-out: Cmax
[11] = Sprague Dawley, rat, in vivo, iv, 2 mg/kg
[12] = Sprague Dawley, rat, in vivo, iv, 2 mg/kg, read-out: C0

SMILES | Emax [1] | EC50 [1] | A: % maximal [3H]MK-801 binding relative to 1 mM glycine [2] | CSF Cmax [4] | Brain Cmax [4] | AUC(0-t) [4, 9] | bioavailability [4, 9] | Cmax [4, 10] | Tmax ([4]; rat, po) | AUC(0-t) [7, 11] | half-life [7, 11] | EC50 [2] | Emax [5] | clearance [7, 11] | C0 [7, 12] | Vd [7, 11] | further results
CC(C)(C)OC(=O)N1CCCC2(CCNC2=O)C1 (single isomer, unassigned) [RE-1, tert-butyl 1-oxo-2,7-diazaspiro[4.5]decane-7-carboxylate] | < 100% | < 1 nM | − (−=0) | 86.1 ng/mL | 22 ng/mL | 273 ng·h/mL | 40% | 495 ng/mL | 15 min | 136 ng·h/mL | 16.2 min |  |  |  |  |  | B: log EC50 [2]: −; Max Effect (mean number of 50 kHz USVs per 15 seconds) [3]: *** (***:10.1-20); EC50 ([5]; second part of table (r25-r35), c4, taken as NMDAR2D, read-out: B: log EC50 (converted)): < 1 nM; A: % maximal [3H]MK-801 binding relative to 1 mM glycine ([6]; second part of table (r25-r35), c3, taken as NMDAR2D): + (<100%=+); Vss ([7]; intravenous 2 mg/kg): 4.12 L/kg; C0 ([7]; intravenous 2 mg/kg): 589.9 ng/mL
O=C1NCCC12CCCCN2 (stereo not drawn) [RG-601] | < 100% | < 1 nM |  | 1151 ng/mL | 1447 ng/mL | 9510 ng·h/mL | 83% | 3990 ng/mL |  | 2280 ng·h/mL | 69.6 min | < 1 nM | > 100% | 13.5 mL/min/kg | 2850 ng/mL | 1.14 L/kg | Emax ([2]; read-out: A: % maximal [3H]MK-801 binding relative to 1 mM glycine): < 100%; Significance vs. vehicle ([8]; 1 wk post-dose): Yes (statistically significant (p<=0.05) from vehicle at dose level shown); % reduction in float time ([8]; 1 wk post-dose): 34.4%; Significance vs. vehicle ([8]; 1 h post-dose, floating time in 5 min test): Yes (statistically significant (p<=0.05) from vehicle at dose level shown); % reduction in float time ([8]; 1 h post-dose): 82.7%; Tmax [4, 9]: 49.8 min
CC(C)(C)OC(=O)N1CCCCC12CCNC2=O (stereo not drawn) [RG-605] |  |  | + (<100%=+) | 1211 ng/mL | 733 ng/mL |  |  |  | 15 min | 1580 ng·h/mL | 18 min | < 1 nM | 0% | 21 mL/min/kg | 3360 ng/mL | 0.53 L/kg | A: % maximal [3H]MK-801 binding relative to 1 mM glycine [1]: − (−=0); B: log EC50 [1]: −; % F [4]: 81%; AUClast [4]: 6370 ng·h/mL; Cmax [4]: 6478 ng/mL; B: log EC50 ([6]; second part of table, c4, taken as NMDAR2D): −
